Starred links: 1 amine or outer side, 2 acyl side, 3 side chain; linkers in the order of their positions; H or OH if unused. Non-standard residues stand in square brackets, D forms with d. Groups on a side chain read outwards from the residue. *: point of attachment. C18 diacid = O=C(O)CCCCCCCCCCCCCCCCC(=O)*; αMePhe(2-F) = C[C@](N)(Cc1ccccc1F)C(=O)O; γGlu = O=C(O)[C@H](CCC(=O)[*:2])N[*:1]; αMe4Pal = C[C@](N)(Cc1ccncc1)C(=O)O; αMeY = C[C@](N)(Cc1ccc(O)cc1)C(=O)O; 4Pal = N[C@@H](Cc1ccncc1)C(=O)O; αMeL = CC(C)C[C@](C)(N)C(=O)O; αMeS = C[C@](N)(CO)C(=O)O; Orn = NCCC[C@H](N)C(=O)O; Aib = CC(C)(N)C(=O)O
What was measured:
hGcgR = hGcgR (Homo sapiens, UniProt P47871); test: Functional cAMP activation in the presence of 0.1% casein (no HSA); format: cell-based; conditions: read-out: Relative cAMP EC50, hGcgR;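 further: intracellular cAMP rise after 30 min at 37 °C, read by HTRF against a cAMP standard curve, scaled from buffer only (0%) to maximal control ligand response (100%)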
human GLP1-R = human GLP1-R (Homo sapiens, UniProt P43220); test: GLP1-R internalization assay in HEK293 cells; format: cell-based; conditions: for EC50: HEK293 cells expressing SNAP-GLP-1R, read-out: GLP1R Internalization EC50; for Internalization % TOP: normalized to maximum concentration of GLP-1 (100%)
hGLP-1R [1] = biological target: T1, hGLP-1R (Homo sapiens, UniProt P43220); test: Functional cAMP activation in the presence of 0.1% casein (no HSA); format: cell-based; conditions: read-out: Relative cAMP EC50, hGLP-1R;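 further: intracellular cAMP rise after 30 min at 37 °C read by HTRF, normalized between buffer only (0%) and maximal control ligand (100%), four-parameter variable-slope fit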
hGIPR [2] = biological target: T2, hGIPR (Homo sapiens, UniProt P48546); test: Functional cAMP activity in the presence of 1% HSA; format: cell-based; conditions: read-out: cAMP Rel EC50, hGIPR
T2 sequence (P48546 22-466): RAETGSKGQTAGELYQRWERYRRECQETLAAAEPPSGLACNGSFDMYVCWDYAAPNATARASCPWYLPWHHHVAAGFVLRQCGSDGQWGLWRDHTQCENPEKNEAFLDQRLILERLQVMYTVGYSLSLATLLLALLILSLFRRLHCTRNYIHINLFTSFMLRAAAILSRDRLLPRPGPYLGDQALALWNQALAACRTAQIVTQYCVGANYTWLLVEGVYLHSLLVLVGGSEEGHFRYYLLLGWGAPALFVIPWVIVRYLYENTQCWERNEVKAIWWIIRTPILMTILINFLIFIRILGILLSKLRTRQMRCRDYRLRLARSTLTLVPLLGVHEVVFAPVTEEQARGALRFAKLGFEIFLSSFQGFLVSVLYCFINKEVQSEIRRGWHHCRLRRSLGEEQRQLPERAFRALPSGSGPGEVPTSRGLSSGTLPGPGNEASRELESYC

human GcgR = human GcgR (Homo sapiens, UniProt P47871); test: Functional cAMP activity in the presence of 1% HSA; format: cell-based; conditions: read-out: cAMP Rel EC50, hGcgR
hGIPR [3] = biological target: T2, hGIPR; test: Functional cAMP activation in the presence of 0.1% casein (no HSA); format: cell-based; conditions: read-out: Relative cAMP EC50, hGIPR;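 further: intracellular cAMP rise after 30 min at 37 °C read by HTRF against a standard curve, scaled between buffer alone (0%) and top control ligand concentration (100%), four-parameter fit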
in vivo [4] = test: in vivo; set-up: species or system cynomolgus monkeys; conditions: both sexes, cynomolgus monkey, iv, 10 nmol/kg
Method: (§1) A study is designed to evaluate the oral bioavailability of Example polypeptides in cynomolgus monkeys. […] Standards and controls are prepared in cynomolgus monkey plasma, and any dilutions required to bring samples into the quantitative range are also performed in control cynomolgus monkey plasma. To control assay variability, an internal standard (IS) is added to all the standards and samples. The Examples and IS are extracted from 100% monkey plasma (50 μL) by protein precipitation using isopropyl alcohol and methanol (50:50 v/v). The samples are then centrifuged (3000 rpm for 10 minutes) and the supernatant is transferred to a Siricco Protein Precipitation Plate. The samples are loaded on a Sep-Pak tC18 SPE microelution plate that is conditioned with 2% formic acid in acetonitrile and water. The compounds are then washed with 2% formic acid in water and eluted using 2% formic acid in acetonitrile into a plate containing 5× Invitrosol and 1% formic acid in water prior to injecting an aliquot (10 μL) on to Xselect CSH C18, 3.5 μm, 2.1×20 mm for LC/MS analysis.
Blood samples are collected over 504 hours. Plasma is harvested from blood samples by centrifugation and stored frozen (−70° C.) until analysis. Plasma concentrations of the molecules are detected using the bioanalytical method described above.

hGLP-1R [5] = biological target: T1, hGLP-1R; test: Functional cAMP activity in the presence of 1% HSA; format: cell-based; conditions: read-out: cAMP Rel EC50, hGLP-1R
[6] = tested on: Intestinal organoid from Göttingen minipig jejunum tissue, 2D monolayer; test: Cell based in vitro permeability (Papp) assay; format: in vitro ADME
How it was run: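 Papp calculated from LC/MS peptide levels in apical and basal compartments. Basal sampling at 20 min with C10 present, across monolayers grown from dissociated minipig jejunal organoids in transwells.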

[7] = Body weight in diet-induced obese C57BL/6 mice; format: in vivo; conditions: 10 nmol/kg SC QD, 14 days, percent of starting weight, DIO mice, mean ± SEM n=5
How it was run: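 Daily weighing gave body weight as percent of starting value (mean±SEM, n=5) over 9-16 days of SC dosing, once daily or every 3 days, shortly before lights-off. Animals were weight-randomized male C57BL/6 DIO mice, 41-50 g, fed ad libitum on a calorie-rich diet.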

in vivo [8] = test: in vivo; set-up: species or system cynomolgus monkeys; conditions: both sexes, cynomolgus monkey, po; for bioavailability: 10 mg; for AUC(0-inf) / CL/F / Cmax / Tmax / half-life: 300 mg
Method: as §1
[…] Blood samples are collected up to 504 hours post-dose. Plasma is harvested from blood samples by centrifugation and stored frozen (−70° C.) until analysis. Plasma concentrations of the molecules are detected using the bioanalytical method described above.

[9] = Pepsin stability assay in simulated gastric fluid; format: in vitro ADME; conditions: pH 1.2, % Intact (SD)
Method: A pepsin stability assay is utilized to determine the relative stability of Example polypeptides in a simulated gastric proteolytic environment. […] The relative amount of intact peptide is quantified by mass spectrometry (MS). […] The examples were dissolved in 50 mM Tris buffer pH 8.0 at a concentration of 10 mg/mL as a stock solution. Pepsin A was reconstituted in SGF at 10 mg/mL. […] The example peptide and pepsin solutions were then incubated at 37° C. in a shaking incubator set at 100 rpm. Samples (25 μL) were withdrawn at different time intervals and quenched with 100 mM ammonium bicarbonate pH 9 (50 μL) to stop proteolytic activity. All samples were centrifuged, and the supernatants were analyzed by LC/MS to determine the remaining intact peptide.

Sequence of hGcgR (P47871 26-477): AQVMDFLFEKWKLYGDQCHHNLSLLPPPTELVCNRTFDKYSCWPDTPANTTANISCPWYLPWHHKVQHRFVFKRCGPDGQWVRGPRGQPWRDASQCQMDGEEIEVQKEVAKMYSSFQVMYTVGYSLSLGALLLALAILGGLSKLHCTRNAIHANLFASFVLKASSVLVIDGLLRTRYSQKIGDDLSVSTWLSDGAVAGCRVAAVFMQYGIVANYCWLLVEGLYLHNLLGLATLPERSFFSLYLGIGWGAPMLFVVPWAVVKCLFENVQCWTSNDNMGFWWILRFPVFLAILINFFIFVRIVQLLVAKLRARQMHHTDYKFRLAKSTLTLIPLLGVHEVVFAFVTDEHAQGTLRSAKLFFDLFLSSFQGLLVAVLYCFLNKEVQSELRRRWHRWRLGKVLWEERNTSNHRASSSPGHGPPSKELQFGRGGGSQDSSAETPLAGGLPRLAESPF
Sequence of human GcgR (P47871 26-477): as above
T1 sequence (P43220 24-463): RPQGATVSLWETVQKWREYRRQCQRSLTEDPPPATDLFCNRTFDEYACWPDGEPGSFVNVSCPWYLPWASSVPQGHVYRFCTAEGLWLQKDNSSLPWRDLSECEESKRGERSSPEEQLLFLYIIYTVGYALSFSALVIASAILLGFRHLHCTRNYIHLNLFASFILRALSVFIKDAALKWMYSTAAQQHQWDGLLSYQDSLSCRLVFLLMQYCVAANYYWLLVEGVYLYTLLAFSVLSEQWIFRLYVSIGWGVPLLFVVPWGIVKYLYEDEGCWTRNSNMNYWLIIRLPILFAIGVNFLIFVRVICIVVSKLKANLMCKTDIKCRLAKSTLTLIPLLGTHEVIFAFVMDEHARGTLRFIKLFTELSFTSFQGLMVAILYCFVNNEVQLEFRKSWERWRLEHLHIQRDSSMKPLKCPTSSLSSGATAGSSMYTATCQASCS
Sequence of human GLP1-R (P43220 24-463): as above

EC50 (human GLP1-R) [nM] | Internalization % TOP (human GLP1-R) [%] | AUC(0-inf) (in vivo [4]) [µM·h] | clearance (in vivo [4]) [mL/min/kg] | half-life (in vivo [4]) [h] | bioavailability (in vivo [8]) [%] | AUC(0-inf) (in vivo [8]) [µM·h] | CL/F (in vivo [8]) [mL/min/kg] | Cmax (in vivo [8]) [nM] | Tmax (in vivo [8]) [h] | half-life (in vivo [8]) [h] | Substance | EC50 (hGcgR) [nM] | EC50 (hGLP-1R [1]) [nM] | EC50 (hGIPR [2]) [nM] | EC50 (human GcgR) [nM] | EC50 (hGIPR [3]) [nM] | EC50 (hGLP-1R [5]) [nM] | Relative Papp (Compared to internal standard) [6] | remaining at 0.25 h, 0.4 mg/mL [9] [%] | remaining at 0.5 h, 0.4 mg/mL [9] [%] | also measured
33.2 | 101 | 7.04 ± 1.29 | 0.0243 | 41.5 ± 2.35 | 3.6 | 14.2 | 2.93 | 249 | 1 | 44.6 | H-Y[Aib]QGT[αMePhe(2-F)]TSD[4Pal]SI[αMeL]LD[Orn]K([γGlu-γGlu-C18 diacid])AQ[αMe4Pal][Orn]FI[dE][αMeY]LIEGGPSSGEPPPETE-NH2 [Example 686] | 2.43 | 0.298 | 0.542 | 169 | 0.00776 | 19.1 | 0.60 | – | – | Body weight (%) [7]: 72.73 ± 3.65 %
17.8 | 109 | 10.5 ± 1.58 | 0.0162 | 53.2 ± 0.603 | 0.6 | 3.58 | 2.7 | 75.7 | 1.5 | 45 | H-Y[Aib]QGT[αMePhe(2-F)]TSD[4Pal][αMeS]ILLD[Orn]K([γGlu-γGlu-C18 diacid])AQ[Aib][Orn]FI[dE]YLIEGGPSSGEPPPSGTGE-NH2 [Example 548] | 3.94 | 0.478 | 3.48 | 295 | 0.0547 | 38 | – | – | – | –
– | – | – | – | – | – | – | – | – | – | – | H-Y[Aib]QGT[αMePhe(2-F)]TSD[4Pal][αMeS]I[αMeL]LD[Orn]K([γGlu-γGlu-C18 diacid])AQ[αMe4Pal]EFI[dE][αMeY]LIEGGPSSGAPPPSGTGE-NH2 [Example 718] | 1.2 | 0.214 | 0.531 | 144 | 0.00706 | 23.2 | – | 103 | 101 | –
– | – | – | – | – | – | – | – | – | – | – | H-Y[Aib]QGT[αMePhe(2-F)]TSD[4Pal][αMeS]I[αMeL]LD[Orn]K([γGlu-γGlu-C18 diacid])AQ[αMe4Pal]EFI[dE][αMeY]LVEGGPSSGAPPPSGS-NH2 [Example 696] | 1.75 | 0.233 | 0.53 | 173 | 0.00688 | 19.1 | 0.77 | 102 | 107 | –

Source: patent US20240270821A1, “GIP/GLP1/GCG TRI-RECEPTOR AGONISTS AND USES THEREOF” (priority 2023, published 2024)
